# Data published in PubChem BioAssay (NCI).
#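 Values below derive from 48-hour exposures of cells grown in 96-well plates, with endpoints linearly interpolated between the two concentrations bracketing the appropriate inhibition level. TGI is the concentration that stops growth completely.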
# Legend:
# Assay in all cases: inhibition of tumour cell growth, NCI panel, 48 h
# MCF7 breast = tested on: MCF7 breast
# M14 melanoma = tested on: M14 melanoma
# K-562 leukemia = tested on: K-562 leukemia
# HOP-92 NSCLC = tested on: HOP-92 NSCLC
# SF-539 CNS = tested on: SF-539 CNS
# COLO 205 colon = tested on: COLO 205 colon
# SK-MEL-2 melanoma = tested on: SK-MEL-2 melanoma
# UO-31 renal = tested on: UO-31 renal
# LOX IMVI melanoma = tested on: LOX IMVI melanoma
# HCC-2998 colon = tested on: HCC-2998 colon
# SK-MEL-28 melanoma = tested on: SK-MEL-28 melanoma
# T-47D breast = tested on: T-47D breast
# NCI-H23 lung = tested on: NCI-H23 lung
# NCI/ADR-RES ovarian = tested on: NCI/ADR-RES ovarian
# IGROV1 ovarian = tested on: IGROV1 ovarian
# CCRF-CEM leukemia = tested on: CCRF-CEM leukemia
# HL-60(TB) leukemia = tested on: HL-60(TB) leukemia
# SR leukemia = tested on: SR leukemia
SMILES,TGI (MCF7 breast) [µM],TGI (M14 melanoma) [µM],TGI (K-562 leukemia) [µM],TGI (HOP-92 NSCLC) [µM],TGI (SF-539 CNS) [µM],TGI (COLO 205 colon) [µM],TGI (SK-MEL-2 melanoma) [µM],TGI (UO-31 renal) [µM],TGI (LOX IMVI melanoma) [µM],TGI (HCC-2998 colon) [µM],TGI (SK-MEL-28 melanoma) [µM],TGI (T-47D breast) [µM],TGI (NCI-H23 lung) [µM],TGI (NCI/ADR-RES ovarian) [µM],TGI (IGROV1 ovarian) [µM],TGI (CCRF-CEM leukemia) [µM],TGI (HL-60(TB) leukemia) [µM],TGI (SR leukemia) [µM]
COc1ccc2[nH]cc(C(=O)C(=O)NC34CC5CC(CC(C5)C3)C4)c2c1,> 31.6,> 100,37.6,> 100,> 81.1,> 100,> 100,> 100,> 100,> 100,> 100,> 100,> 100,> 100,> 100,29.9,,
CC1(C)C2CC(O)C1CCC2=O (stereo not drawn),> 100,> 100,> 100,,> 100,> 100,> 100,> 100,> 100,> 100,> 100,> 100,> 100,> 100,,> 100,> 100,
CC(C)(C)OC(=O)NC(Cc1ccc(O)cn1)C(=O)O (stereo not drawn),> 100,,> 100,> 100,> 100,> 100,,> 100,> 100,> 100,> 100,,> 100,> 100,> 100,,> 100,> 100
O=C(CCCN1CCC(Nc2ccccc2)(c2nnnn2C2CCCCC2)CC1)c1ccc(F)cc1,5.74,3.98,33.9,,5.66,4.77,23.7,12.8,> 100,32.1,12.3,,28.8,> 100,23.2,44.6,29.6,> 100
Clc1ccc(CCn2cncn2)cc1,,> 100,> 100,> 100,> 100,> 100,> 100,> 100,> 100,,> 100,,> 100,,> 100,> 100,> 100,> 100
N#CC1=C(c2ccccc2)C(=C2Nc3ccccc3N2)C2S/C(=C\c3ccccc3)C(=O)N2C1=N (stereo not drawn),,6.56,50.5,2.67,3.35,20.5,4.05,3.74,3.43,13.3,10.5,,4.49,,4.71,6.66,6.53,4.87
O=c1c2ccccc2nc2n1-c1ccccc1SC2,,> 100,> 100,> 100,> 100,> 100,> 100,> 100,> 100,> 100,> 100,,> 100,,> 100,> 100,,
O=C1/C(=C/c2ccco2)N=C2Sc3c(nc[nH]c3=O)N12,> 100,> 100,> 100,> 100,> 100,> 100,> 100,> 100,> 100,,> 100,> 100,> 100,> 100,> 100,> 100,> 100,
O=C(O)COc1ccc(C(=O)/C(SS/C(C(=O)c2ccc(OCC(=O)O)c(Cl)c2Cl)=C2\C=C(c3ccc(Cl)cc3)SS2)=C2/C=C(c3ccc(Cl)cc3)SS2)c(Cl)c1Cl,,26.3,10.7,17.9,17.9,1.27,33.7,16.9,15.3,25.3,56.7,,40.8,,76.2,5.85,2.1,
O=C1C=CC2(C=C1)CCNC1=C2C(=O)c2ccccc2C1=O,,> 100,> 100,> 100,> 100,> 100,> 100,> 100,> 100,> 100,> 100,,> 100,,> 100,> 100,> 100,
N#Cc1ccc(N2CCOCC2)cc1,> 100,> 100,,> 100,> 100,> 100,> 100,> 100,> 100,,> 100,> 100,> 100,> 100,> 100,> 100,> 100,
CCOC(=O)C1(C(=O)OCC)C[C@@H](C)[C@@H](O)C1,> 100,> 100,> 100,> 100,> 100,> 100,> 100,> 100,> 100,,> 100,,> 100,> 100,> 100,> 100,> 100,> 100
C/C=C1\CC2C(=O)CCC2C2c3ccccc3OC12 (stereo not drawn),> 100,> 100,> 100,> 100,> 100,> 100,> 100,> 100,> 100,,> 100,,> 100,> 100,> 100,> 100,> 100,> 100
Cc1nc(N2N=C(c3ccc(Cl)cc3)CCC2=O)sc1[N+](=O)[O-],,> 100,> 100,,> 100,> 100,> 100,> 100,> 100,> 100,> 100,,> 100,,> 100,> 100,> 100,> 100
CC1CC/C(=C\c2ccc(N(C)C)cc2)C2=C1C(c1ccc(N(C)C)cc1)NC(=S)N2 (stereo not drawn),> 100,> 100,> 100,,> 100,> 100,> 100,> 100,> 100,,> 100,> 100,> 100,> 100,> 100,> 100,> 100,
